Results reported in patent US6716833B2, “Acetylenic α-amino acid-based sulfonamide hydroxamic acid tace inhibitors” (priority 1999, dated 2004).
Where two headings read alike, the source gives them in different places.

Key:
Assay type in all cases: biochemical
[1] = target: MMP-13 (Homo sapiens, UniProt P45452); test: MMP-13 inhibition (thiopeptide or fluorescent peptide substrate)
[2] = target: MMP-9 (Homo sapiens, UniProt P14780); test: MMP-9 inhibition (thiopeptide or fluorescent peptide substrate); details: read-out: MMP-9 IC50
[3] = target: T1, MMP-1 (Homo sapiens, UniProt P03956); test: MMP-1 inhibition (thiopeptide or fluorescent peptide substrate); details: read-out: MMP-1 IC50
T1 sequence (P03956 100-469): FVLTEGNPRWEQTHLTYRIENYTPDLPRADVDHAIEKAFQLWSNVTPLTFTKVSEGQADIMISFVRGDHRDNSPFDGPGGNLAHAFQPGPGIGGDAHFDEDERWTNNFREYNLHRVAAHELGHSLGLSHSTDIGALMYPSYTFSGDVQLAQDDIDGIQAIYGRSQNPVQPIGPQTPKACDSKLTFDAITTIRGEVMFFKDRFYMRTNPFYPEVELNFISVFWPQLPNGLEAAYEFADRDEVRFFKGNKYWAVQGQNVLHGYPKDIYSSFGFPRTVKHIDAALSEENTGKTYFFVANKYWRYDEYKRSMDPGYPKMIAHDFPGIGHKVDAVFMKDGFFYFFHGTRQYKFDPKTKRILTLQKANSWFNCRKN

[4] = target: TNF-α converting enzyme (TACE) (Homo sapiens, UniProt P78536); test: TACE inhibition (fluorescent peptidyl substrate); details: read-out: TACE IC50
[5] = Table 10, read-out: MMP-13 IC50

MMP-9, sequence (P14780 94-707): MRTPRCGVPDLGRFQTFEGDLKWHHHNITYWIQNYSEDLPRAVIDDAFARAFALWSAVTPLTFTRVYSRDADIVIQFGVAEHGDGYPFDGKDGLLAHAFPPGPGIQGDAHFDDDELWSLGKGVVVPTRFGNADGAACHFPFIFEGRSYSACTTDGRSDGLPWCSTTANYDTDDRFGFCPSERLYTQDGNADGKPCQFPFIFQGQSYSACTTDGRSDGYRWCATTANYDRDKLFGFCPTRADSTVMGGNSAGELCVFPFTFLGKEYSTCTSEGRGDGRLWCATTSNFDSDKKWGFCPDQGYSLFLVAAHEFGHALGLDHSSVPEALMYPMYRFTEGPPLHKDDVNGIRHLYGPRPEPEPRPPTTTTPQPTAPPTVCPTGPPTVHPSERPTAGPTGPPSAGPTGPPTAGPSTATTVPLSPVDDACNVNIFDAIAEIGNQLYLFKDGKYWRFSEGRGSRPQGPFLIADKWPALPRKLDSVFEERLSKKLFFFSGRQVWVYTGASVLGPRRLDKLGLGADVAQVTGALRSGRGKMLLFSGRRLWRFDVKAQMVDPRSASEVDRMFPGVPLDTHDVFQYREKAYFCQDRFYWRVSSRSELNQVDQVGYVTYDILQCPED
TNF-α converting enzyme (TACE), sequence (P78536 215-824, species assumed): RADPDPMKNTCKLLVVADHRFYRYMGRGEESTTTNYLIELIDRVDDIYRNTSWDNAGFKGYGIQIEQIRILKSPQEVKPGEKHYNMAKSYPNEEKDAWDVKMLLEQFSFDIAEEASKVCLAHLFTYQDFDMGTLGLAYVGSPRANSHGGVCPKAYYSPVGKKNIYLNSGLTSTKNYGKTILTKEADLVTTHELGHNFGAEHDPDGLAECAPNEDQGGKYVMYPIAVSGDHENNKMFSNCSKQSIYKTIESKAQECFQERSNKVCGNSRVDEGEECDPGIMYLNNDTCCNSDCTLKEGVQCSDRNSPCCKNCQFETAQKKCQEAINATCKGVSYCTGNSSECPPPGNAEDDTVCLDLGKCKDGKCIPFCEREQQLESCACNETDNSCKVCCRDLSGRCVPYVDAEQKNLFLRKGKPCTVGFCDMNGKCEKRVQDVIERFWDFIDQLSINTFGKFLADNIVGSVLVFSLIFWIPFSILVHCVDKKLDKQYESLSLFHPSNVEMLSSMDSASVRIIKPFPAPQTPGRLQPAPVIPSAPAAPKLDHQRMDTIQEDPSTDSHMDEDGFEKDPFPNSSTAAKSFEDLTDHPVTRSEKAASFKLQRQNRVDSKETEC

Row | Structure (SMILES) | IC50 ([1]; read-out: MMP-13 IC50) [nM] | IC50 [2] [nM] | IC50 [3] [nM] | IC50 [4] [nM] | further results
1 | CC#CCOc1ccc(S(=O)(=O)N2CCN(C(=O)C3(C)COC(C)(C)OC3)CC2C(=O)NO)cc1 (centres unmarked) [Example 231, 1-{[4-(2-Butynyloxy)phenyl]sulfonyl}-N-hydroxy-4-[(2,2,5-trimethyl-1,3-dioxan-5-yl)carbonyl]-2-piperazinecarboxamide] | 355 | 1110 | 2450 | 59 | –
2 | CC#CCOc1ccc(S(=O)(=O)N2C[C@H](C)SC(C)(C)[C@@H]2C(=O)NO)cc1 [Example 272, (3S,6S)-4-{[4-(2-Butynyloxy)phenyl]sulfonyl}-N-hydroxy-2,2,6-trimethyl-3-thiomorpholinecarboxamide] | – | – | – | – | IC50 ([1]; Table 11, read-out: MMP-13 IC50): 8.7 nM; IC50 ([2]; Table 11): 166 nM; IC50 ([3]; Table 11): 7.8 nM; IC50 ([4]; Table 11): 24 nM
3 | CC#CCOc1ccc(S(=O)(=O)N2CCN(C(=O)Nc3ccc(OC)cc3)CC2C(=O)NO)cc1 (centres unmarked) [Example 221, 4-{[4-(2-Butynyloxy)phenyl]sulfonyl}-N-3-hydroxy-N-1-(4-methoxyphenyl)-1,3-piperazinedicarboxamide] | 182 | 576 | 1510 | 69 | –
4 | CC#CCOc1ccc(S(=O)(=O)N2CSC(C)(C)[C@@H]2C(=O)NO)cc1 [Example 286, (4S)-3-{[4-(2-Butynyloxy)phenyl]sulfonyl}-N-hydroxy-5,5-dimethyl-1,3-thiazolidine-4-carboxamide] | 852 | 1790 | 3040 | 20 | –
5 | CC#CCOc1ccc(S(=O)(=O)N2CCN(C(=O)N3CCCC3)CC2C(=O)NO)cc1 (centres unmarked) [Example 217, 1-(4-but-2-ynyloxy-Benzenesulfonyl)-4-(pyrrolidine-1-carbonyl)-piperazine-2-carboxylic Acid Hydroxyamide] | 83 | 209 | 1250 | 28 | –
6 | CC#CCOc1ccc(S(=O)(=O)N2CCN(Cc3ccc(Br)cc3)CC2C(=O)NO)cc1 (centres unmarked) [Example 233, 4-(4-Bromo-benzyl)-1-(4-but-2-ynyloxy-benzenesulfonyl)-piperazine-2-carboxylic Acid Hydroxyamide] | 55 | 69 | 2830 | 184 | –
7 | CC#CCOc1ccc(S(=O)(=O)N(C)C(C(=O)NO)c2ccc(OCCNC(=O)OC(C)(C)C)cc2)cc1 (centres unmarked) [Example 180, tert-Butyl 2-(4-[1-[{[4-(2-Butynyloxy)phenyl]sulfonyl}(methyl)amino]-2-(hydroxyamino)-2-oxoethyl]phenoxy}ethylcarbamate] | 9.3 | 34 | 599 | 265 | –
8 | CC1(C)SCCN(S(=O)(=O)c2ccc(OCC#CCCCOC3CCCCO3)cc2)C1C(=O)NO (centres unmarked) [Example 248, N-Hydroxy-2,2-dimethyl-4-[(4-{[6-(tetrahydro-2H-pyran-2-yloxy)-2-hexynyl]oxy}phenyl)sulfonyl]-3-thiomorpholine Carboxamide] | – | – | – | – | IC50 [1, 5]: 7.3 nM; IC50 ([2]; Table 10): 48 nM; IC50 ([3]; Table 10): 98 nM; IC50 ([4]; Table 10): 92 nM
9 | C#CCOc1ccc(C(NS(=O)(=O)c2ccc(OCC#CC)cc2)C(=O)NO)cc1 (centres unmarked) [Example 177, 2-({[4-(2-Butynyloxy)phenyl]sulfonyl}amino)-N-hydroxy-2-[4(2-propynyloxy)phenyl]acetamide] | 57 | 310 | < 10000 | 4.8 | –
10 | CC#CCOc1ccc(S(=O)(=O)NC(C(=O)NO)c2ccc(O)cc2)cc1 (centres unmarked) [Example 176, 2-({[4-(2-Butynyloxy)phenyl]sulfonyl}amino)-N-hydroxy-2-(4-hydroxyphenyl)acetamide] | 103 | 898 | ~10000 | 4 | –
11 | CC#CCOc1ccc(S(=O)(=O)N2CCN(Cc3cccnc3)CC2C(=O)NO)cc1 (centres unmarked) [Example 234, 1-(4-but-2-ynyloxy-Benzenesulfonyl)-4-pyridin-3-ylmethyl-piperazine-2-carboxylic Acid Hydroxyamide] | – | 108 | 3200 | 28 | IC50 ([1]; MMP-13 IC50): 49 nM
12 | CC1(C)SCCN(S(=O)(=O)c2ccc(OCC#CCCN)cc2)C1C(=O)NO (centres unmarked) [Example 246, 4-({4-[(5-Amino-2-pentynyl)oxy]phenyl}sulfonyl)-N-hydroxy-2,2-dimethyl-3-thiomorpholine Carboxamide] | – | – | – | – | IC50 [1, 5]: 27 nM; IC50 ([2]; Table 10): 41 nM; IC50 ([3]; Table 10): 1050 nM; IC50 ([4]; Table 10): 138 nM
13 | CC#CCOc1ccc(S(=O)(=O)N(C)C(C(=O)NO)c2ccc(OCCN3CCNCC3)cc2)cc1 (centres unmarked) [Example 186, 2-[{[4-(2-butynyloxy)phenyl]sulfonyl}(methyl)amino]-N-hydroxy-2-{4-[2-(1-piperazinyl)ethoxy]phenyl}acetamide] | 21 | 32 | 568 | 31 | –
14 | CC#CCOc1ccc(S(=O)(=O)N2CC[S+]([O-])C(C)(C)C2C(=O)NO)cc1 (single isomer, unassigned) [Example 255] | – | – | – | – | IC50 ([1]; Table 9, read-out: MMP-13 IC50): 8.7 nM; IC50 ([2]; Table 9): 29 nM; IC50 ([3]; Table 9): 46 nM; IC50 ([4]; Table 9): 24 nM
15 | CC1(C)SCCN(S(=O)(=O)c2ccc(OCC#CCCO)cc2)C1C(=O)NO (centres unmarked) [Example 244, N-Hydroxy-4-({4-[(5-hydroxy-2-pentynyl)oxy]phenyl}sulfonyl)-2,2-dimethyl-3-thiomorpholine Carboxamide] | – | – | – | – | IC50 [1, 5]: 14 nM; IC50 ([2]; Table 10): 72 nM; IC50 ([3]; Table 10): 35 nM; IC50 ([4]; Table 10): 62 nM
16 | CC#CCOc1ccc(S(=O)(=O)N2CCN(C(=O)Nc3ccc(F)cc3)CC2C(=O)NO)cc1 (centres unmarked) [Example 222, 4-{[4-(2-Butynyloxy)phenyl]sulfonyl}-N-1-(4-fluorophenyl)-N-3-hydroxy-1,3-piperazinedicarboxamide] | 75 | 173 | 941 | 30 | –
17 | CC#CCOc1ccc(S(=O)(=O)N[C@@H](C(=O)NO)c2ccc(OCCNC(=O)OC(C)(C)C)cc2)cc1 [Example 199, tert-Butyl 2-{4-[(1R)-1-({[4-(2-Butynyloxy)phenyl]sulfonyl}amino)-2-(hydroxyamino)-2-oxoethyl]phenoxy}ethylcarbamate] | 139 | 862 | ~10000 | 42 | –

More lines, main results first:

Row | IC50 ([1]; read-out: MMP-13 IC50) [nM] | IC50 [2] [nM] | IC50 [3] [nM] | IC50 [4] [nM] | Structure (SMILES) | further results
18 | 142 | 397 | 189 | 57 | CC#CCOc1ccc(S(=O)(=O)N(CC2CC2)C(C(=O)NO)C(C)C)cc1 (centres unmarked) [Example 112, 2-[(4-but-2-ynyloxy-Benzenesulfonyl)-cyclopropylmethyl-amino]-N-hydroxy-3-methyl-butyramide] | –
19 | 94 | 193 | 236 | 93 | CC#CCOc1ccc(S(=O)(=O)N(Cc2cccnc2)C(C(=O)NO)C(C)C)cc1 (centres unmarked) [Example 114, 2-[(4-but-2-ynyloxy-Benzenesulfonyl)-pyridin-3-ylmethyl-amino]-N-hydroxy-3-methyl-butyramide] | –
20 | 6.6 | 14 | 94 | 31 | CC#CCOc1ccc(S(=O)(=O)N(C)C(C(=O)NO)C2CCCCC2)cc1 (centres unmarked) [Example 115, 2-[(4-but-2-ynyloxy-Benzenesulfonyl)-methyl-amino]-2-cyclohexyl-N-hydroxy-acetamide] | –
21 | 303 | 1420 | 308 | 481 | CC#CCOc1ccc(S(=O)(=O)N(CCCc2ccccc2)C(C(=O)NO)C(C)C)cc1 (centres unmarked) [Example 111, 2-[(4-but-2-ynyloxy-Benzenesulfonyl)-(3-phenyl-propyl)-amino]-N-hydroxy-3-methyl-butyramide] | –
22 | 45 | 86 | 121 | 154 | CC#CCOc1ccc(S(=O)(=O)N(CCCN(CC)CC)C(C(=O)NO)C(C)C)cc1 (centres unmarked) [Example 118, 2-{{[4-(2-Butynyloxy)phenyl]sulfonyl}[3-(diethylamino)propyl]amino}-N-hydroxy-3-methylbutanamide] | –
23 | 67 | 119 | 92 | 33 | CC#CCOc1ccc(S(=O)(=O)N(CC)C(C(=O)NO)C(C)C)cc1 (centres unmarked) [Example 108, 2-[(4-but-2-ynyloxy-Benzenesulfonyl)-ethyl-amino]-N-hydroxy-3-methyl-butyramide] | –
24 | 50 | 135 | 86 | 128 | CC#CCOc1ccc(S(=O)(=O)N(CCCCN2CCN(C)CC2)C(C(=O)NO)C(C)C)cc1 (centres unmarked) [Example 122, 2-{{[4-(2-Butynyloxy)phenyl]sulfonyl}[4-(4-methyl-1-piperazinyl)butyl]amino}-N-hydroxy-3-methylbutanamide] | –
25 | 66 | 142 | 921 | 21 | CC#CCOc1ccc(S(=O)(=O)N(CC#CCN2CCN(C)CC2)C(C)C(=O)NO)cc1 (centres unmarked) [Example 135] | –
26 | 114 | 256 | 120 | 177 | CC#CCOc1ccc(S(=O)(=O)N(CCCCN(CC)CC)C(C(=O)NO)C(C)C)cc1 (centres unmarked) [Example 121, 2-{{[4-(2-Butynyloxy)phenyl]sulfonyl}[4-(diethylamino)butyl]amino}-N-hydroxy-3-methylbutanamide] | –
